#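 96-well plates; 48 h exposure; 5 concentrations. Endpoints by linear interpolation between flanking doses. Not reached: highest tested concentration assigned. At the TGI there is no net growth.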
# Columns and labels:
# Test in all cases: NCI tumour cell line growth inhibition, 48 h
# 786-0 renal = system: 786-0 renal
# A498 renal = system: A498 renal
# A549 NSCLC = system: A549 NSCLC
# ACHN renal = system: ACHN renal
# BT-549 breast = system: BT-549 breast
# CAKI-1 renal = system: CAKI-1 renal
# CCRF-CEM leukemia = system: CCRF-CEM leukemia
# COLO 205 colon = system: COLO 205 colon
# DU-145 prostate = system: DU-145 prostate
# EKVX NSCLC = system: EKVX NSCLC
# HCC-2998 colon = system: HCC-2998 colon
# HCT-116 colon = system: HCT-116 colon
# HCT-15 colon = system: HCT-15 colon
# HL-60(TB) leukemia = system: HL-60(TB) leukemia
# HOP-62 NSCLC = system: HOP-62 NSCLC
# HOP-92 NSCLC = system: HOP-92 NSCLC
# HS 578T breast = system: HS 578T breast
# HT29 colon = system: HT29 colon
# IGROV1 ovarian = system: IGROV1 ovarian
# K-562 leukemia = system: K-562 leukemia
# KM12 colon = system: KM12 colon
# LOX IMVI melanoma = system: LOX IMVI melanoma
# M14 melanoma = system: M14 melanoma
# MALME-3M melanoma = system: MALME-3M melanoma
# MCF7 breast = system: MCF7 breast
# MDA-MB-231 breast = system: MDA-MB-231 breast
# MDA-MB-435 = system: MDA-MB-435
# MDA-N = system: MDA-N
# NCI-H226 lung = system: NCI-H226 lung
# NCI-H23 lung = system: NCI-H23 lung
# NCI-H460 lung = system: NCI-H460 lung
# NCI-H522 lung = system: NCI-H522 lung
# NCI/ADR-RES ovarian = system: NCI/ADR-RES ovarian
# OVCAR-3 ovarian = system: OVCAR-3 ovarian
# OVCAR-4 ovarian = system: OVCAR-4 ovarian
# OVCAR-5 ovarian = system: OVCAR-5 ovarian
# OVCAR-8 ovarian = system: OVCAR-8 ovarian
# PC-3 prostate = system: PC-3 prostate
# RPMI-8226 leukemia = system: RPMI-8226 leukemia
# RXF 393 renal = system: RXF 393 renal
# SF-268 CNS = system: SF-268 CNS
# SF-295 CNS = system: SF-295 CNS
# SF-539 CNS = system: SF-539 CNS
# SK-MEL-2 melanoma = system: SK-MEL-2 melanoma
# SK-MEL-28 melanoma = system: SK-MEL-28 melanoma
# SK-MEL-5 melanoma = system: SK-MEL-5 melanoma
# SK-OV-3 ovarian = system: SK-OV-3 ovarian
# SN12C renal = system: SN12C renal
# SNB-19 CNS = system: SNB-19 CNS
# SNB-75 CNS = system: SNB-75 CNS
# SR leukemia = system: SR leukemia
# SW-620 colon = system: SW-620 colon
# T-47D breast = system: T-47D breast
# TK-10 renal = system: TK-10 renal
# U251 CNS = system: U251 CNS
# UACC-257 melanoma = system: UACC-257 melanoma
# UACC-62 melanoma = system: UACC-62 melanoma
# UO-31 renal = system: UO-31 renal
compound,measurement,setting,value
Cc1c(-c2ccccc2)c(C#N)c2nnn(-c3ccc(Cl)cc3)c(=O)n12,TGI,786-0 renal,47.7 µM
same,TGI,A498 renal,> 100 µM
same,TGI,A549 NSCLC,> 100 µM
same,TGI,ACHN renal,> 100 µM
same,TGI,BT-549 breast,> 100 µM
same,TGI,CAKI-1 renal,> 100 µM
same,TGI,CCRF-CEM leukemia,> 100 µM
same,TGI,COLO 205 colon,42.3 µM
same,TGI,DU-145 prostate,> 100 µM
same,TGI,EKVX NSCLC,> 100 µM
same,TGI,HCC-2998 colon,> 100 µM
same,TGI,HCT-116 colon,> 100 µM
same,TGI,HCT-15 colon,> 100 µM
same,TGI,HL-60(TB) leukemia,> 100 µM
same,TGI,HOP-62 NSCLC,> 100 µM
same,TGI,HOP-92 NSCLC,> 100 µM
same,TGI,HS 578T breast,> 100 µM
same,TGI,HT29 colon,> 100 µM
same,TGI,IGROV1 ovarian,> 100 µM
same,TGI,K-562 leukemia,> 100 µM
same,TGI,KM12 colon,> 100 µM
same,TGI,LOX IMVI melanoma,> 100 µM
same,TGI,M14 melanoma,> 100 µM
same,TGI,MALME-3M melanoma,> 100 µM
same,TGI,MCF7 breast,> 100 µM
same,TGI,MDA-MB-231 breast,> 100 µM
same,TGI,MDA-MB-435,> 100 µM
same,TGI,MDA-N,> 100 µM
same,TGI,NCI-H226 lung,> 100 µM
same,TGI,NCI-H23 lung,> 100 µM
same,TGI,NCI-H460 lung,> 100 µM
same,TGI,NCI-H522 lung,26.7 µM
same,TGI,NCI/ADR-RES ovarian,> 100 µM
same,TGI,OVCAR-3 ovarian,52.2 µM
same,TGI,OVCAR-4 ovarian,> 100 µM
same,TGI,OVCAR-5 ovarian,> 100 µM
same,TGI,OVCAR-8 ovarian,> 100 µM
same,TGI,PC-3 prostate,50.9 µM
same,TGI,RPMI-8226 leukemia,> 100 µM
same,TGI,RXF 393 renal,> 100 µM
same,TGI,SF-268 CNS,> 100 µM
same,TGI,SF-295 CNS,> 100 µM
same,TGI,SF-539 CNS,> 100 µM
same,TGI,SK-MEL-2 melanoma,> 100 µM
same,TGI,SK-MEL-28 melanoma,> 100 µM
same,TGI,SK-MEL-5 melanoma,16 µM
same,TGI,SK-OV-3 ovarian,> 100 µM
same,TGI,SN12C renal,> 100 µM
same,TGI,SNB-19 CNS,> 100 µM
same,TGI,SNB-75 CNS,> 100 µM
same,TGI,SR leukemia,> 100 µM
same,TGI,SW-620 colon,> 100 µM
same,TGI,T-47D breast,47.4 µM
same,TGI,TK-10 renal,> 100 µM
same,TGI,U251 CNS,27.3 µM
same,TGI,UACC-257 melanoma,> 100 µM
same,TGI,UACC-62 melanoma,> 100 µM
same,TGI,UO-31 renal,> 100 µM

# Reference: PubChem BioAssay (NCI)
